Experimental data published in ChEMBL document CHEMBL5046278, “Synthesis and Evaluation of Novel Tetrahydronaphthyridine CXCR4 Antagonists with Improved Drug-like Profiles” (J Med Chem, 2022).

Legend:
[1] = AUC(0 to 8 h) in mouse plasma at 30 mg/kg, po measured at 24 hrs by LC-MS/MS analysis; assay type: ADME, organism-based; parameters: route oral, time 24 hrs, dose 30 mg/kg; details: in vivo
[2] = organism: Homo sapiens; assay: Selectivity index, ratio of IC50 for inhibition of mu opioid receptor (unknown origin) to IC50 for antagonist activity at human CXCR4 receptor expressed in CCRF-CEM cells; assay type: cell-based
[3] = AUC(0 to 8 h) in mouse plasma at 10 mg/kg, po measured at 24 hrs by LC-MS/MS analysis; assay type: ADME, organism-based; parameters: route oral, dose 10 mg/kg, time 24 hrs; details: in vivo
[4] = target: C-X-C chemokine receptor type 2 (Homo sapiens) (UniProt P25025); assay: Inhibition of human CXCR2 at 10 uM relative to control
Sequence of C-X-C chemokine receptor type 2 (Homo sapiens) (P25025 whole entry): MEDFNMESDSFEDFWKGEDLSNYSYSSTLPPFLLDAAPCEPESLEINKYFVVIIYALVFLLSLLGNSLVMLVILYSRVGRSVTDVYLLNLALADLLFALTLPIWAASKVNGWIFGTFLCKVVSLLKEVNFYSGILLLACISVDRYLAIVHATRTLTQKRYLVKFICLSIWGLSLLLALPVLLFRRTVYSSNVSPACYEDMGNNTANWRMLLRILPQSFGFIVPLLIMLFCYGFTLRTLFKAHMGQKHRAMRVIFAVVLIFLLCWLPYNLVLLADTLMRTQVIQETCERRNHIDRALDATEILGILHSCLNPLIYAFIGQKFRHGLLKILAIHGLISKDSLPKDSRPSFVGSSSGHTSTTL

[5] = organism: Homo sapiens; assay: Selectivity index, ratio of IC50 for inhibition of hERG receptor (unknown origin) to IC50 for antagonist activity at human CXCR4 receptor expressed in CCRF-CEM cells; assay type: cell-based
[6] = target: T1, Alpha-2C adrenergic receptor (Homo sapiens, UniProt P18825); assay: Inhibition of alpha 2C adrenergic receptor (unknown origin)
T1 sequence (P18825 whole entry): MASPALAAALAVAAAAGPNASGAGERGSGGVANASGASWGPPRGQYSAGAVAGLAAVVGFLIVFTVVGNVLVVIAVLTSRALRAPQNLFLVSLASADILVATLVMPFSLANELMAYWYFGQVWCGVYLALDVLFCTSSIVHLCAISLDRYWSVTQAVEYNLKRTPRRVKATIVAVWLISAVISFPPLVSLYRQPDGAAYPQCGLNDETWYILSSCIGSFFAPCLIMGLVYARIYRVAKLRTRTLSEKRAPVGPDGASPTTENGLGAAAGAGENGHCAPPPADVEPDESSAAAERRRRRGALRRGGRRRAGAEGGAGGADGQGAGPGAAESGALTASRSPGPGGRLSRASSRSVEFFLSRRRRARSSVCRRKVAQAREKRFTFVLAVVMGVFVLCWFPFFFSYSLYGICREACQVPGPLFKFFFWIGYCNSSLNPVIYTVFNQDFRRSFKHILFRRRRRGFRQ

[7] = Cmax in mouse at 3 mg/kg, po measured after 8 hrs by LC-MS/MS analysis; assay type: ADME, organism-based; parameters: route oral, time 8 hrs, dose 3 mg/kg; details: in vivo
[8] = target: Neuronal acetylcholine receptor subunit alpha-7 (Homo sapiens, UniProt P36544); assay: Inhibition of alpha7 nicotinic acetylcholine receptor (unknown origin)
Sequence of Neuronal acetylcholine receptor subunit alpha-7 (P36544 whole entry): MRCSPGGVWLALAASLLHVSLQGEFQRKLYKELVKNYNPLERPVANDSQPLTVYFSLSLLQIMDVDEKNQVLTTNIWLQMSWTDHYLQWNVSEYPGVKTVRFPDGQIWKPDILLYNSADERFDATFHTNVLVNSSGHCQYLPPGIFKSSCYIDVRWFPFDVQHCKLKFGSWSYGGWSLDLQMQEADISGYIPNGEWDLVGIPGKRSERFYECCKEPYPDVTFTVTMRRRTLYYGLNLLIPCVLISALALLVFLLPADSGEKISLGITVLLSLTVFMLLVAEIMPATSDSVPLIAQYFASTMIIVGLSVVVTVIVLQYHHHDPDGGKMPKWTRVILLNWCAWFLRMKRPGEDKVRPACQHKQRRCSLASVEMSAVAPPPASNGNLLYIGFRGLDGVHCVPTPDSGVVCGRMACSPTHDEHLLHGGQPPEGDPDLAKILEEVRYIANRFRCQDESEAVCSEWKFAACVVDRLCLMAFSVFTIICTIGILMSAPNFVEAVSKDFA

[9] = Clearence in mouse at 3 mg/kg, iv measured at 24 hrs by LC-MS analysis; assay type: ADME, organism-based; details: in vivo
[10] = Permeability of compound at pH 7.4 incubated for 4 hrs by PAMPA assay; assay type: ADME; details: read-out: permeability
[11] = AUC(0 to 8 h)in mouse plasma at 3 mg/kg, po measured at 24 hrs by LC-MS/MS analysis; assay type: ADME, organism-based; parameters: route oral, dose 3 mg/kg, time 24 hrs; details: in vivo
[12] = target: Kappa-type opioid receptor (Homo sapiens, UniProt P41145); assay: Inhibition of kappa opioid receptor (unknown origin)
Sequence of Kappa-type opioid receptor (P41145 whole entry): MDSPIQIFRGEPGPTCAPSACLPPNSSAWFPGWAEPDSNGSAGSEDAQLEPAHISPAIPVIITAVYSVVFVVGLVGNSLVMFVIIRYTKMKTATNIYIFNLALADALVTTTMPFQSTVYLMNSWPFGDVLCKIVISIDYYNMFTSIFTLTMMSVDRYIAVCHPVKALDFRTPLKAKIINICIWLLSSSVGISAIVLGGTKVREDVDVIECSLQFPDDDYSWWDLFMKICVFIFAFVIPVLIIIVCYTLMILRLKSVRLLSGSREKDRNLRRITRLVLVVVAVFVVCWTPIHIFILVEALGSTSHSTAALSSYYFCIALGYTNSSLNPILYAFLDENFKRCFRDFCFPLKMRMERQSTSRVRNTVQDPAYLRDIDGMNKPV

[13] = organism: Homo sapiens; assay: Selectivity index, ratio of IC50 for inhibition of kappa opioid receptor (unknown origin) to IC50 for antagonist activity at human CXCR4 receptor expressed in CCRF-CEM cells; assay type: cell-based
[14] = target: C-C chemokine receptor type 7 (Homo sapiens) (UniProt P32248); assay: Inhibition of human CCR7 at 10 uM relative to control
Sequence of C-C chemokine receptor type 7 (Homo sapiens) (P32248 whole entry): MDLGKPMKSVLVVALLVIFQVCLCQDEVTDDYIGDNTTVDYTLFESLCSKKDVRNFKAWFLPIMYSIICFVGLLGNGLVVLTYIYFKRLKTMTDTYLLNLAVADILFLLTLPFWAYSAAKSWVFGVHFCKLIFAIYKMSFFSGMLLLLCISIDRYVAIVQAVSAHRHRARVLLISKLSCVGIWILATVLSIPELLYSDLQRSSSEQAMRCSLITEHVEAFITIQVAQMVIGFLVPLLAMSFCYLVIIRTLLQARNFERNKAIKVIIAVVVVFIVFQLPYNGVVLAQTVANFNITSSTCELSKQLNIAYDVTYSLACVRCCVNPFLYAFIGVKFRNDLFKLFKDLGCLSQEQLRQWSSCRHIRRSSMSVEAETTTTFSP

[15] = Antagonist activity at human CXCR4 receptor expressed in CCRF-CEM cells assessed as inhibition of CXCL12-induced calcium release by calcium flux assay; assay type: cell-based
[16] = Oral bioavailability in mouse at 30 mg/kg measured at 24 hrs by LC-MS/MS analysis; assay type: ADME, organism-based; details: in vivo
[17] = Therapeutic index, ratio of TC50 for human TZM-bl cells to IC50 for antiviral activity against HIV-1 NL4-3 (X4) pseudovirus infected in human TZM-bl cells assessed as reduction in viral infectivity; assay type: toxicity, cell-based
[18] = target: Cytochrome P450 2C8 (Homo sapiens, UniProt P10632); assay: Inhibition of CYP2C8 (unknown origin); assay type: ADME
Sequence of Cytochrome P450 2C8 (P10632 whole entry): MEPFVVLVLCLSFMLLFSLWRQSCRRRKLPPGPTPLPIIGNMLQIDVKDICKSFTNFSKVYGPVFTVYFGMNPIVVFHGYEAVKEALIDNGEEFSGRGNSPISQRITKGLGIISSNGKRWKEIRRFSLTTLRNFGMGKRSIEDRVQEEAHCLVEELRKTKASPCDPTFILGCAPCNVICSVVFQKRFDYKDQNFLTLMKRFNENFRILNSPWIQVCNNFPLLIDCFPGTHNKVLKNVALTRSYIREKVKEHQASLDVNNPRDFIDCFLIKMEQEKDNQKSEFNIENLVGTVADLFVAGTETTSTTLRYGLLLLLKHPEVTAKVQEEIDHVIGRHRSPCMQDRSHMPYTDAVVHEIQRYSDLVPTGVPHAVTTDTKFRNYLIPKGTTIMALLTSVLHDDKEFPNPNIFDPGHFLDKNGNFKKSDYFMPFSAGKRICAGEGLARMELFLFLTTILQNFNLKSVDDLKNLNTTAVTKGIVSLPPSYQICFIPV

[19] = tested on: Human immunodeficiency virus 1; assay: Antiviral activity against HIV-1 Z1800M E4.02 (R5) pseudovirus infected in human TZM-blcells assessed as reduction in viral infectivity measured after 48 hrs of postinfection by luminescence assay; assay type: functional, organism-based; details: Human immunodeficiency virus 1, Z1800M E4.02 (R5), TZM-bl
[20] = organism: Homo sapiens; assay: Selectivity index, ratio of IC50 for Inhibition of human ERG to IC50 for antagonist activity at human CXCR4 receptor expressed in CCRF-CEM cells; assay type: cell-based
[21] = Half life in mouse at 3 mg/kg, iv measured after 8 hrs by LC-MS/MS analysis; assay type: ADME, organism-based; details: in vivo
[22] = organism: Homo sapiens; assay: Selectivity index, ratio of IC50 for inhibition of recombinant human CYP1A2 to IC50 for antagonist activity at human CXCR4 receptor expressed in CCRF-CEM cells; assay type: cell-based
[23] = tested on: Human immunodeficiency virus 1; assay: Antiviral activity against HIV-1 NL4-3(X4) pseudovirus infected in human TZM-bl cells assessed as reduction in viral infectivity measured after 48 hrs of postinfection by luminescence assay; assay type: functional, organism-based; details: Human immunodeficiency virus 1, NL4-3(X4)
[24] = target: T2, Muscarinic acetylcholine receptor M2 (Homo sapiens, UniProt P08172); assay: Inhibition of M2 mAChR receptor (unknown origin)
T2 sequence (P08172 whole entry): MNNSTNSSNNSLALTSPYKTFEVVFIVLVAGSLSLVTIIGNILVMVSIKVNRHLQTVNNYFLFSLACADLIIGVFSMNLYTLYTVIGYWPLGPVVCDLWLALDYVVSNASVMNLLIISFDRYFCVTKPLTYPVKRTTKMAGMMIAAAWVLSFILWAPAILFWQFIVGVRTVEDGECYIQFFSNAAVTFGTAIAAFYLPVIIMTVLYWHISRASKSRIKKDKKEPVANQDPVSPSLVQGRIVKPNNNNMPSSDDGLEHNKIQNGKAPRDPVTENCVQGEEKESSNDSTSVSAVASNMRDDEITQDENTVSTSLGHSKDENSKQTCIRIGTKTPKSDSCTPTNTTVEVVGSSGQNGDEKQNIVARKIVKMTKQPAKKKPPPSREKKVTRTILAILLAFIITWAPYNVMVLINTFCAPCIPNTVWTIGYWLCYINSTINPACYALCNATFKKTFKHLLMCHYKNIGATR

[25] = Cmax in mouse at 30 mg/kg, po measured after 8 hrs by LC-MS/MS analysis; assay type: ADME, organism-based; parameters: route oral, dose 30 mg/kg, time 8 hrs; details: in vivo
[26] = Metabolic stability in mouse liver microsomes assessed compound remaining measured after 10 mins in presence of NADPH; assay type: ADME, Microsome; details: read-out: Stability
[27] = Permeability of compound at pH 5.5 incubated for 4 hrs by PAMPA assay; assay type: ADME; details: read-out: permeability
[28] = Drug concentration in mouse plasma at 3 mg/kg, po measured at 12 hrs by LC-MS/MS analysis; assay type: ADME, organism-based
[29] = organism: Homo sapiens; assay: Selectivity index, ratio of IC50 for inhibition of alpha 2C adrenergic receptor (unknown origin) to IC50 for antagonist activity at human CXCR4 receptor expressed in CCRF-CEM cells; assay type: cell-based
[30] = Metabolic stability in human liver microsomes assessed compound remaining measured after 10 mins in presence of NADPH; assay type: ADME, Microsome; details: read-out: Stability
[31] = target: Cytochrome P450 3A4 (Homo sapiens, UniProt P08684); assay: Inhibition of CYP3A4 (unknown origin); assay type: ADME
Sequence of Cytochrome P450 3A4 (P08684 whole entry): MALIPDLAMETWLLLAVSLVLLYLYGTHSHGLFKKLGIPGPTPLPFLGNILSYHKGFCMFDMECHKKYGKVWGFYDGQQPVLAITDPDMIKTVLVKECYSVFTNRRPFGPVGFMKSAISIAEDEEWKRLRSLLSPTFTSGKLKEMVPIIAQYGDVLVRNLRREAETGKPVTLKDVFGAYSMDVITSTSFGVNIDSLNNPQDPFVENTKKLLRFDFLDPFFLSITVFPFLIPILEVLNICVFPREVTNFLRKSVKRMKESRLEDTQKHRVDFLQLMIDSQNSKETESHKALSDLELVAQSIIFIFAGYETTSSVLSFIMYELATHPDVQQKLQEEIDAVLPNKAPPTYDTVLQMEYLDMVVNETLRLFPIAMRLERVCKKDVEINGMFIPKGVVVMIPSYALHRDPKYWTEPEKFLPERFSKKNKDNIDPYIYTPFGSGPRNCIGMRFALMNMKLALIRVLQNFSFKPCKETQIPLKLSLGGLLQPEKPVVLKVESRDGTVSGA

Q: What does the source list for `CN(CCCCN(C[C@H]1Cc2ncccc2CN1)[C@H]1CCCc2cccnc21)C1CCC(F)(F)CC1`?
A: AUC [1]: 717 h/ng/mL; Selectivity Index [2]: > 1000; AUC [3]: 190 h/ng/mL; inhibition [4]: < 5%; Selectivity Index [5]: > 1000; IC50 [6]: > 30 µM; Cmax [7]: 12.8 ng/mL; IC50 [8]: > 30 µM; clearance [9]: 188 mL/min/kg; Papp at 4 h [10]: 31 ×10⁻⁶ cm/s; AUC [11]: 34.3 h/ng/mL; IC50 [12]: > 30 µM; Selectivity Index [13]: > 1000; inhibition [14]: < 5%; IC50 [15]: 0.024 µM; bioavailability [16]: 27.1%; selectivity ratio [17]: > 1000; IC50 [18]: > 20 µM; IC50 [19]: > 10 µM; Selectivity Index [20]: 710; half-life [21]: 5.89 h; Selectivity Index [22]: > 710; IC50 [23]: 0.007 µM; IC50 [24]: > 30 µM; Cmax [25]: 169 ng/mL; remaining at 10 min [26]: 35%; Papp at 4 h [27]: 1.5 ×10⁻⁶ cm/s; concentration at 12 h [28]: 1.5 ng/mL; Selectivity Index [29]: > 1000; remaining at 10 min [30]: 61%; IC50 [31]: > 20 µM
